The source of these data is patent publication US10233182B2, “Substituted spirocyclic inhibitors of autotaxin” (X-Rx, Inc., priority 2014, dated 2019).

Structures can show the parent of a compound that is named as a salt.

For the assay, the target named is Autotaxin (Homo sapiens (Human), UniProt Q13822). As to the kind of experiment: Autotaxin LPC Cascade Assay. It is filed as biochemical. The conditions noted are these: Autotaxin 5 nM, LPC 100 μM, choline oxidase/HRP/Ampliflu Red fluorescence read-out, 2% DMSO, RT; read-out: IC50 ATX Activity. Put shortly:
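Choline liberated from LPC by autotaxin during 1 h, after a 10-min RT compound preincubation, was converted through choline oxidase/HRP to a fluorescent Ampliflu Red product.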
Turning to `CCc1ccc(F)c(C(=O)N[C@@H](C(=O)N2CCC3(CC2)C(=O)N(C)CN3c2ccccc2)C(C)C)c1` [Example 144, (R)-5-Ethyl-2-fluoro-N-(3-methyl-1-(3-methyl-4-oxo-1-phenyl-1,3,8-triazaspiro[4.5]decan-8-yl)-1-oxobutan-2-yl)benzamide], the IC50 (usually the midpoint of a concentration-inhibition curve) is below 500 nM.

Regarding `CC(C)[C@@H](NC(=O)c1cc(C(F)(F)F)ccc1F)C(=O)N1CCC2(CC1)C(=O)N(C)C(=O)N2C1CCCC1` [Example 125, (R)—N-(1-(1-Cyclopentyl-3-methyl-2,4-dioxo-1,3,8-triazaspiro[4.5]decan-8-yl)-3-methyl-1-oxobutan-2-yl)-2-fluoro-5-(trifluoromethyl)benzamide], the IC50 is below 500 nM.

Take `CC(C)[C@@H](NC(=O)c1cc(C(F)(F)F)ccc1F)C(=O)N1CCC2(CC1)C(=O)N(C)C(=O)N2c1ccc(OCC#N)cc1` [Example 82, (R)—N-(1-(1-(4-(cyanomethoxy)phenyl)-3-methyl-2,4-dioxo-1,3,8-triazaspiro[4.5]decan-8-yl)-3-methyl-1-oxobutan-2-yl)-2-fluoro-5-(trifluoromethyl)benzamide]: the IC50 lay within 500 to 1000 nM.

Take `CC(C)[C@@H](NC(=O)c1cc(OC(F)F)ccc1F)C(=O)N1CCC2(CC1)C(=O)N(C)C(=O)N2c1ccc(C(=O)O)cc1` [Example 166, (R)-4-(8-(2-(5-(Difluoromethoxy)-2-fluorobenzamido)-3-methylbutanoyl)-3-methyl-2,4-dioxo-1,3,8-triazaspiro[4.5]decan-1-yl)benzoic Acid]: the IC50 was below 500 nM.

Take `Cc1cccc(C(=O)N[C@@H](C(=O)N2CCC3(CC2)C(=O)N(C)CN3c2ccccc2)C2CCCCC2)n1` [Example 131, (R)—N-(1-Cyclohexyl-2-(3-methyl-4-oxo-1-phenyl-1,3,8-triazaspiro[4.5]decan-8-yl)-2-oxoethyl)-6-methylpicolinamide trifluoroacetic Acid Salt]: the IC50 is below 500 nM.

As for `CC(C)[C@@H](NC(=O)c1cc(C(F)(F)F)ccc1F)C(=O)N1CCC2(CC1)C(=O)N(C)C(=O)N2c1ccc2[nH]ncc2c1` [Example 52, (R)—N-(1-(1-(1H-indazol-5-yl)-3-methyl-2,4-dioxo-1,3,8-triazaspiro[4.5]decan-8-yl)-3-methyl-1-oxobutan-2-yl)-2-fluoro-5-(trifluoromethyl)benzamide], the IC50 was below 500 nM.

On to `CC(C)[C@@H](NC(=O)c1cc(C(F)(F)F)ccc1F)C(=O)N1CCC2(CC1)C(=O)N(C)C(=O)N2c1ccc(F)cc1` [Example 182, (R)-2-Fluoro-N-(1-(1-(4-fluorophenyl)-3-methyl-2,4-dioxo-1,3,8-triazaspiro[4.5]decan-8-yl)-3-methyl-1-oxobutan-2-yl)-5-(trifluoromethyl)benzamide], for which the IC50 was below 500 nM.

As for `Cc1cccc(C(=O)N[C@@H](C(=O)N2CCC3(CC2)C(=O)N(C)CN3c2cccc(B(O)O)c2)C(C)C)c1F` [Example 148, (R)-3-(8-(2-(2-Fluoro-3-methylbenzamido)-3-methylbutanoyl)-3-methyl-4-oxo-1,3,8-triazaspiro[4.5]decan-1-yl)phenylboronic Acid], the IC50 is at least 1000 nM.

In the case of `CC(C)[C@@H](NC(=O)c1cc(C(F)(F)F)ccc1F)C(=O)N1CCC2(CC1)C(=O)N(C)C(=O)N2Cc1cccc(S(C)(=O)=O)c1` [Example 103, (R)-2-Fluoro-N-(3-methyl-1-(3-methyl-1-(3-(methylsulfonyl)benzyl)-2,4-dioxo-1,3,8-triazaspiro[4.5]decan-8-yl)-1-oxobutan-2-yl)-5-(trifluoromethyl)benzamide], the IC50 was in the range of 500 to 1000 nM.

For the compound `CC(C)[C@@H](NC(=O)c1cc(C(F)(F)F)ccc1F)C(=O)N1CCC2(CC1)C(=O)N(C)C(=O)N2CC1CC1` [Example 75, (R)—N-(1-(1-(Cyclopropylmethyl)-3-methyl-2,4-dioxo-1,3,8-triazaspiro[4.5]decan-8-yl)-3-methyl-1-oxobutan-2-yl)-2-fluoro-5-(trifluoromethyl)benzamide], the IC50 was at least 1000 nM.

Regarding `CCc1ccc(F)c(C(=O)N[C@@H](C(=O)N2CCC3(CC2)C(=O)N(C)CN3c2ccc3[nH]ncc3c2)C(C)C)c1` [Example 215, (R)—N-(1-(1-(1H-Indazol-5-yl)-3-methyl-4-oxo-1,3,8-triazaspiro[4.5]decan-8-yl)-3-methyl-1-oxobutan-2-yl)-5-ethyl-2-fluorobenzamide], the IC50 was below 500 nM.

As to `CC(C)[C@@H](NC(=O)c1cc(C(F)(F)F)ccc1F)C(=O)N1CCC2(CC1)C(=O)N(C)CN2c1ccc(-c2nn[nH]n2)cc1` [Example 227, (R)—N-(1-(1-(4-(2H-Tetrazol-5-yl)phenyl)-3-methyl-4-oxo-1,3,8-triazaspiro[4.5]decan-8-yl)-3-methyl-1-oxobutan-2-yl)-2-fluoro-5-(trifluoromethyl)benzamide], the IC50 was below 500 nM.

Take `CC(C)[C@@H](NC(=O)c1cc(C(F)(F)F)ccc1F)C(=O)N1CCC2(CC1)C(=O)N(C)C(=O)N2Cc1ccc2nccnc2c1` [Example 100, (R)-2-Fluoro-N-(3-methyl-1-(3-methyl-2,4-dioxo-1-(quinoxalin-6-ylmethyl)-1,3,8-triazaspiro[4.5]decan-8-yl)-1-oxobutan-2-yl)-5-(trifluoromethyl)benzamide]: the IC50 was below 500 nM.

In the case of `CC(C)[C@@H](NC(=O)c1nc(C(F)(F)F)cs1)C(=O)N1CCC2(CC1)C(=O)N(C)C(=O)N2c1ccc2[nH]ncc2c1` [Example 235, (R)—N-(1-(1-(1H-Indazol-5-yl)-3-methyl-2,4-dioxo-1,3,8-triazaspiro[4.5]decan-8-yl)-3-methyl-1-oxobutan-2-yl)-4-(trifluoromethyl)thiazole-2-carboxamide], the IC50 is at least 1000 nM.

On to `CC(C)[C@@H](NC(=O)c1cc(C(F)(F)F)ccc1F)C(=O)N1CCC2(CC1)C(=O)N(C)CN2c1ccc(NC2COC2)cc1` [Example 218, (R)-2-Fluoro-N-(3-methyl-1-(3-methyl-1-(4-(oxetan-3-ylamino)phenyl)-4-oxo-1,3,8-triazaspiro[4.5]decan-8-yl)-1-oxobutan-2-yl)-5-(trifluoromethyl)benzamide], for which the IC50 was below 500 nM.

With `CC(C)[C@@H](NC(=O)c1cc(C(F)(F)F)ccc1F)C(=O)N1CCC2(CC1)C(=O)N(C)C(=O)N2Cc1ccc2[nH]ncc2c1` [Example 98, (R)—N-(1-(1-((1H-Indazol-5-yl)methyl)-3-methyl-2,4-dioxo-1,3,8-triazaspiro[4.5]decan-8-yl)-3-methyl-1-oxobutan-2-yl)-2-fluoro-5-(trifluoromethyl)benzamide], the IC50 was below 500 nM.

Take `CCc1ccc(F)c(C(=O)N[C@@H](C(=O)N2CCC3(CC2)C(=O)N(C)CN3c2ccc(S(C)(=O)=O)cc2)C(C)C)c1` [Example 200, (R)-5-Ethyl-2-fluoro-N-(3-methyl-1-(3-methyl-1-(4-(methylsulfonyl)phenyl)-4-oxo-1,3,8-triazaspiro[4.5]decan-8-yl)-1-oxobutan-2-yl)benzamide]: the IC50 was below 500 nM.

Regarding `CC(C)[C@@H](NC(=O)c1cc(C(F)(F)F)ccc1F)C(=O)N1CCC2(CC1)C(=O)N(C)C(=O)N2c1cnc2[nH]ccc2c1` [Example 20, (R)-2-Fluoro-N-(3-methyl-1-(3-methyl-2,4-dioxo-1-(1H-pyrrolo[2,3-b]pyridin-5-yl)-1,3,8-triazaspiro[4.5]decan-8-yl)-1-oxobutan-2-yl)-5-(trifluoromethyl)benzamide], the IC50 was below 500 nM.

Consider `Cc1cccc(C(=O)N[C@H](C(=O)N2CCC3(CC2)C(=O)N(C)CN3c2ccccc2)C2CCOCC2)c1` [Example 130, (S)-3-Methyl-N-(2-(3-methyl-4-oxo-1-phenyl-1,3,8-triazaspiro[4.5]decan-8-yl)-2-oxo-1-(tetrahydro-2H-pyran-4-yl)ethyl)benzamide], for which the IC50 is at least 1000 nM.
